Laboratory results: patent US20180325850A1 (The Regents of the University of Michigan, priority 2017, published 2018)

Experiments:
Format in all cases: in vivo, rat
IR rats [1] = test: Long-term (4-week) oral VPA treatment of IR rats, EF and FS; settings: oral VPA 250 mg/kg twice daily for 4 weeks, versus IR control animals
Method: In addition, long-term (4-week) treatment of VPA was performed to IR rats.

[2] = system: MI rats generated by ischemia reperfusion; test: Echocardiography of heart function (EF, FS) after ischemia reperfusion MI
Method: 24 h post coronary ligation, a MI size of 33.59±3.54% of the left ventricle was induced in rats. […] Left ventricular internal diameter end diastole (LVIDd) and end systole (LVIDs) were measured perpendicularly to the long axis of the ventricle. EF and FS were calculated according to LVIDd and LVIDs.

Foxm1 = test: RNA-seq of whole hearts one day after IR
From the text: Recent studies indicate that neonatal CMs proliferate much more potently than adult CMs and Foxm1 appears to be a key factor in regulating neonatal CM proliferation by controlling Igf1 and cell cycle genes (Ref. 44; incorporated by reference in its entirety). […] These genes are mostly proliferation related genes. Other potential targets include anti-oxidative, pro-fibrotic, and CM structural genes. Foxm1 has also been reported to work with YAP1 to activate proliferation genes (Ref. 46; incorporated by reference in its entirety).

[3] = system: MI rats generated by ischemia reperfusion; test: Myocardial infarct size by triphenyltetrazolium chloride (TTC) staining; settings: two shots of VPA within 24 h of IR injury; versus saline controls
Method: Myocardial infarct size was determined by triphenyltetrazolium chloride (TTC) staining. The hearts were frozen rapidly and sliced into five 2 mm transverse sections. The sections were incubated at 37° C. with 1% TTC in phosphate buffer (pH 7.4) for 10 min, fixed in 10% formaldehyde solution, photographed and calculated using ImageJ software. The infarct size was expressed as a percentage of infarct volume versus left ventricle volume.

IR rats [4] = test: Plasma biochemical assay of LDH and creatine kinase (MI injury biomarkers); settings: 24 h after VPA treatment
Method: To determine the possible protective effect of VPA after MI, MI rats were generated by ischemia reperfusion and VPA was administrated to the animals. […] Intra-peritoneal injection of 250 mg/kg VPA was conducted immediately after and 12 h after coronary ligation. Heart functional assays, MI assessment, and physiological assays were performed 24 h after VPA administration.

[5] = IR rats, 250 mg/kg VPA intra-peritoneal immediately after and 12 h after coronary ligation, echocardiography at 24 h

Question: Which “effect on ventricular remodeling and pumping function (EF, FS)” value (IR rats [1]) does the source give for `CCCC(CCC)C(=O)O` [VPA, valproic acid] here?
Answer: protected the MI hearts from ventricular remodeling and weakening of the pumping function

Question: And the “fractional shortening (FS)” value [2, 5]?
Answer: 33.21±4.46%

Question: What about the “left ventricle ejection fraction (EF)” value [2, 5] of the same compound?
Answer: 60.60±6.18%

Question: What about the “rescue of the functional loss caused by acute IR injury” value ([2]; VPA treatment within 12 h of IR injury, from EF and FS) of the same compound?
Answer: roughly 50%

Question: What about the “Foxm1 expression, IR+VPA group versus no IR group” value (Foxm1) of the same compound?
Answer: 8 fold

Question: And the “reduction of infarct size” value [3]?
Answer: around 45%

Question: And the “plasma LDH release” value (IR rats [4])?
Answer: 63.07±23.83 U/L

Question: And the “plasma creatine kinase (CK) release” value (IR rats [4])?
Answer: 158.31±43.53 U/L
